According to patent US20120214847A1, “2-[1-PHENYL-5-HYDROXY-4a-SUBSTITUTED-HEXAHYDROCYCLOPENTA[F]INDAZOL-5-YL]ETHYL PHENYL DERIVATIVES AS GLUCOCORTICOID RECEPTOR LIGANDS” (Merck Sharp & Dohme Corp., priority 2009, published 2012):

Each compound was assayed against T1, glucocorticoid receptor (Homo sapiens, UniProt P04150) (assay: Ligand binding assay (GRBind), 3H-dexamethasone displacement in HeLa cell lysate). Details: 3H-DEX tracer.
T1 construct: endogenous in cells; host or cells: HeLa (ATCC) cell lysate supernatant
T1 sequence (P04150 1-777): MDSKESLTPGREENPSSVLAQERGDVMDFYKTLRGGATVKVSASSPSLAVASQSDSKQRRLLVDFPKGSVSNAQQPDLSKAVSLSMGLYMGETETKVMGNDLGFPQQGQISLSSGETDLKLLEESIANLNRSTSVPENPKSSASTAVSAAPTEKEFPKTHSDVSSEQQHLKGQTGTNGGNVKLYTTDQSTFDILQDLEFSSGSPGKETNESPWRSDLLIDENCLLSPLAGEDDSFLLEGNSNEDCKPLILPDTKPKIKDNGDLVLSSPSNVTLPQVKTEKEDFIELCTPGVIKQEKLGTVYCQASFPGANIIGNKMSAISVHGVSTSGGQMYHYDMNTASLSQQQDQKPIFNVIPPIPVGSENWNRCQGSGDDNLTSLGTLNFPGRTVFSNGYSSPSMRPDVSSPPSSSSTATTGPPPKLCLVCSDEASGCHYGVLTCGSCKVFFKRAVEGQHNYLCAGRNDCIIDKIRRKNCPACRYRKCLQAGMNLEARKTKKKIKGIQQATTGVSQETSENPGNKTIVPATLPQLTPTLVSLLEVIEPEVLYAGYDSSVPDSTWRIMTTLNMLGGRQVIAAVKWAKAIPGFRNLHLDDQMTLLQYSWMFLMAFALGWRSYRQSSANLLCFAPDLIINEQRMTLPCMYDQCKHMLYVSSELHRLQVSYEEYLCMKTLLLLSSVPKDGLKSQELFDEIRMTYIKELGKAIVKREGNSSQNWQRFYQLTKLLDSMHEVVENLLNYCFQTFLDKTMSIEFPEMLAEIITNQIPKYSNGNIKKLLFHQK
Procedure: Binding Buffer: TEGM (10 mM Tris-HCl, 1 mM EDTA, 10% glycerol, 1 mM betamecaptoethanol, 10 mM Sodium Molybdate, pH 7.2)
50% HAP Slurry: Calbiochem Hydroxylapatite, Fast Flow, in 10 mM Tris, pH 8.0 and 1 mM EDTA.
Wash Buffer: 40 mM Tris, pH7.5, 100 mM KCl, 1 mM EDTA and 1 mM EGTA. 95% EtOH Dexmethasone-methyl-3H, (DEXA*); (Amersham cat#TRK645) Dexamethasone(DEX) (Sigma, cat#01756):
Hydroxylapatite Fast Flow; Calbiochem Cat#391947
25 Molybdate=Molybdic Acid (Sigma, M1651)
5 Cells (Hall R. E., et al., European Journal of Cancer, 30A: 484-490 (1994)) HeLa (ATCC) cultured in RPMI 1640 (Gibed 11835-055) containing 20 mM Hepes, 4 mM L-glu, 10 ug/ml of human insulin (Sigma, 1-0259), 10% FBS and 20 uglml of Gentamicin (Gibco#15710072) are rinsed twice in PBS. Phenol red-free Trypsin-EDTA is diluted in the same PBS 1:10. The cell layers are rinsed with IX Trypsin, extra Trypsin is poured out, and the cell layers are incubated at 37° C. for 2 min. The flask is tapped and checked for signs of cell detachment. Once the cells begin to slide off the flask, the complete media is added. The cells are counted at this point, then diluted to the appropriate concentration and split into flasks or dishes for further culturing (Usually 1:3 to 1:6 dilution).
Preparation of HeLa Cell Lysate
When the cells are 70 to 85% confluent, they are detached as described above, and collected by centrifuging at 1000 g for 10 min at 4° C. The cell pellet is washed twice with TEGM (10 mM Tris-HCl, 1 mM EDTA, 10% glycerol, 1 mM beta-mercaptoethanol, 10 mM Sodium Molybdate, pH 7.2). After the final wash, the cells are resuspended in TEGM at a concentration of 10^7 cells/mL. The cell suspension is snap frozen in liquid nitrogen or ethanol/dry ice bath and transferred to −80° C. freezer on dry ice. Before setting up the binding assay, the frozen samples are left on ice-water to just thaw. Then the samples are centrifuged at 12,500 g to 20,000 g for 30 min at 4° C. The supernatant is used to set-up assay right away. If using 50 μL of supernatant, the test compound can be prepared in 50 μL of the TEGM buffer.
Procedure for Multiple Compound Screening
1×TEGM buffer is prepared, and the isotope-containing assay mixture is prepared in the following order: EtOH (2% final concentration in reaction), 3H-DEX (Amersham Biosciences) and 1×TEGM. [e.g. For 100 samples, 200 JlL (100×2) of EtOH+4.25 JlL of 1:10 ^3H-Dex stock+2300 μL (100×23) 1×TEGM]. The compound is serially diluted, e.g., if starting final conc. is 1 μM, and the compound is in 25 μL of solution, for duplicate samples, 75 μL of 4×1 μM solution is made and 3 μL of 100). 1M is added to 72 μL of buffer, and 1:5 serial dilution.
25 μL of ^3H-DEX (6 nM) trace and 25 μL, compound solution are first mixed together, followed by addition of 50 μL receptor solution. The reaction is gently mixed, spun briefly at about 200 rpm and incubated at 4° C. overnight. 100 μL of 50% HAP slurry is prepared and added to the incubated reaction which is then vortexed and incubated on ice for 5 to 10 min. The reaction mixture is vortexed twice more to resuspend HAP while incubating reaction. The samples in 96-well format are then washed in wash buffer using the FilterMate™ Universal Harvester plate washer (Packard). The washing process transfers HAP pellet containing ligand-bound expressed receptor to Unifilter-96 GFIB filter plate (Packard). The HAP pellet on the filter plate is incubated with […] of MICROSCINT (Packard) scintillant for 30 min before being counted on the TopCount microscintillation counter (Packard). IC50s are calculated using DEX as a reference.
For NC(=O)C(O)c1ccccc1CC[C@]1(O)CCC2=Cc3c(cnn3-c3ccc(F)cc3)C[C@@]21C1CC1 (single isomer, unassigned) [Example 3b], the Ki was 1.79 nM.
Work on CC[C@]12Cc3cnn(-c4ccccc4)c3C=C1CC[C@@]2(O)CC(O)c1ccccn1 (single isomer, unassigned) [Example 67a] yielded a Ki of 11.3 nM.
With CC[C@]12Cc3cnn(-c4ccccc4)c3C=C1CC[C@@]2(O)CC(O)c1ccccn1 (single isomer, unassigned) [Example 67b] the Ki was 5.46 nM.
CC[C@]12Cc3cnn(-c4ccc(F)cc4)c3C=C1CC[C@@]2(O)CC(O)c1ccc(F)cn1 (single isomer, unassigned) [Example 69a] gave a Ki of 4.41 nM.
CC[C@]12Cc3cnn(-c4ccc(F)cc4)c3C=C1CC[C@@]2(O)CC(O)c1ccc(F)cn1 (single isomer, unassigned) [Example 69b] showed a Ki of 2.91 nM.
OC(C[C@]1(O)CCC2=Cc3c(cnn3-c3ccc(F)cc3)C[C@@]21C1CC1)c1ccc(F)cn1 (single isomer, unassigned) [Example 79a] was tested, and the Ki was 2.83 nM.
For NC(=O)c1cccnc1CC[C@]1(O)CCC2=Cc3c(cnn3-c3ccc(F)cc3)C[C@@]21C1CC1 [Example 1, 2-{2-[(4aR,5R)-4a-Cyclopropyl-1-(4-fluorophenyl)-5-hydroxy-1,4,4a,5,6,7-hexahydrocyclopenta[f]indazol-5-yl]ethyl}pyridine-3-carboxamide], the Ki was 4.51 nM.
For NC(=O)c1cc(F)cnc1CC[C@]1(O)CCC2=Cc3c(cnn3-c3ccc(F)cc3)C[C@@]21C1CC1 [Example 4, 2-{2-[(4aR,5R)-4a-Cyclopropyl-1-(4-fluorophenyl)-5-hydroxy-1,4,4a,5,6,7-hexahydrocyclopenta[f]indazol-5-yl]ethyl}-5-fluoropyridine-3-carboxamide], the Ki was 1.98 nM.
Compound CC[C@]12Cc3cnn(-c4cccnc4)c3C=C1CC[C@@]2(O)CCc1ccccc1C#N [Example 5, 2-{2-[(4aS,5R)-4a-Ethyl-5-hydroxy-1-(pyridin-3-yl)-1,4,4a,5,6,7-hexahydrocyclopenta[f]indazol-5-yl]ethyl}benzonitrile] has a Ki of 2.01 nM.
In the case of CC[C@]12Cc3cnn(-c4ccccc4)c3C=C1CC[C@@]2(O)CCc1ccc(F)cc1C(N)=O [Example 6], the Ki is reported as 3.17 nM.
NC(=O)c1ccccc1CC[C@]1(O)CCC2=Cc3c(cnn3-c3cccc(F)c3)C[C@@]21C1CC1 [Example 7, 2-{2-[(4aR,5R)-4a-Cyclopropyl-1-(3-fluorophenyl)-5-hydroxy-1,4,4a,5,6,7-hexahydrocyclopenta[f]indazol-5-yl]ethyl}benzamide] gave a Ki of 3.22 nM.
Compound CC[C@]12Cc3cnn(-c4ccc(F)cc4)c3C=C1CC[C@@]2(O)CCc1ccc(F)cc1C(N)=O [Example 8, 2-{2-[(4aS,5R)-4a-Ethyl-1-(4-fluorophenyl)-5-hydroxy-1,4,4a,5,6,7-hexahydrocyclopenta[f]indazol-5-yl]ethyl}-5-fluorobenzamide] has a Ki of 1.27 nM.
Compound CC[C@]12Cc3cnn(-c4cccnc4)c3C=C1CC[C@@]2(O)CCc1ccc(F)cc1C#N [Example 9, 2-{2-[(4aS,5R)-4a-Ethyl-5-hydroxy-1-(pyridin-3-yl)-1,4,4a,5,6,7-hexahydrocyclopenta[f]indazol-5-yl]ethyl}-5-fluorobenzonitrile] has a Ki of 1.99 nM.
CC[C@]12Cc3cnn(-c4cccnc4)c3C=C1CC[C@@]2(O)CCc1cccc(F)c1C#N [Example 10, 2-{2-[(4aS,5R)-4a-Ethyl-5-hydroxy-1-(pyridin-3-yl)-1,4,4a,5,6,7-hexahydrocyclopenta[f]indazol-5-yl]ethyl}-6-fluorobenzonitrile] gave a Ki of 2.59 nM.
For CC[C@]12Cc3cnn(-c4cccc(F)c4)c3C=C1CC[C@@]2(O)CCc1ccccc1C(N)=O [Example 11, 2-{2-[(4aS,5R)-4a-Ethyl-1-(3-fluorophenyl)-5-hydroxy-1,4,4a,5,6,7-hexahydrocyclopenta[f]indazol-5-yl]ethyl}benzamide], the Ki was 3.22 nM.
For CC[C@]12Cc3cnn(-c4cccc(F)c4)c3C=C1CC[C@@]2(O)CCc1cccc(F)c1C(N)=O [Example 12, 2-{2-[(4aS,5R)-4a-Ethyl-1-(3-fluorophenyl)-5-hydroxy-1,4,4a,5,6,7-hexahydrocyclopenta[f]indazol-5-yl]ethyl}-6-fluorobenzamide], the Ki was 1.85 nM.
Compound CC[C@]12Cc3cnn(-c4cccnc4)c3C=C1CC[C@@]2(O)CCc1ccccc1C(N)=O [Example 13, 2-{2-[(4aS,5R)-4a-Ethyl-5-hydroxy-1-(pyridin-3-yl)-1,4,4a,5,6,7-hexahydrocyclopenta[f]indazol-5-yl]ethyl}benzamide] has a Ki of 28.4 nM.
CC[C@]12Cc3cnn(-c4cccnc4)c3C=C1CC[C@@]2(O)CCc1cccc(F)c1C(N)=O [Example 14, 2-{2-[(4aS,5R)-4a-Ethyl-5-hydroxy-1-(pyridin-3-yl)-1,4,4a,5,6,7-hexahydrocyclopenta[f]indazol-5-yl]ethyl}-6-fluorobenzamide] showed a Ki of 8.68 nM.
In the case of CC[C@]12Cc3cnn(-c4ccccc4)c3C=C1CC[C@@]2(O)CCc1cccc(F)c1C#N [Example 15, 2-{2-[(4aS,5R)-4a-Ethyl-5-hydroxy-1-phenyl-1,4,4a,5,6,7-hexahydrocyclopenta[f]indazol-5-yl]ethyl}-6-fluorobenzonitrile], the Ki is reported as 1.28 nM.
Work on CC[C@]12Cc3cnn(-c4ccc(F)cc4)c3C=C1CC[C@@]2(O)CCc1ccccn1 [Example 16, (4aS,5R)-4a-Ethyl-1-(4-fluorophenyl)-5-[2-(pyridin-2-yl)ethyl]-1,4,4a,5,6,7-hexahydrocyclopenta[f]indazol-5-ol] yielded a Ki of 2.22 nM.
Work on CC[C@]12Cc3cnn(-c4ccc(F)cc4)c3C=C1CC[C@@]2(O)CCc1ncccc1F [Example 17, (4aS,5R)-4a-Ethyl-1-(4-fluorophenyl)-5-[2-(3-fluoropyridin-2-yl)ethyl]-1,4,4a,5,6,7-hexahydrocyclopenta[f]indazol-5-ol] yielded a Ki of 1.44 nM.
CC[C@]12Cc3cnn(-c4ccc(F)cc4)c3C=C1CC[C@@]2(O)CCc1cc(F)ccn1 [Example 18, (4aS,5R)-4a-Ethyl-1-(4-fluorophenyl)-5-[2-(4-fluoropyridin-2-yl)ethyl]-1,4,4a,5,6,7-hexahydrocyclopenta[f]indazol-5-ol] gave a Ki of 1.73 nM.
